Results taken from patent US6172099A, “Tricyclic compounds having saturated rings and medicinal compositions containing the same” (Asahi Kasei Kogyo Kabushiki Kaisha, priority 1997, dated 2001).
Counter-ions that a name gives are not always drawn. Like-named read-outs stand apart in the source and are kept apart here.

Columns and labels:
rat adipocytes = assay: Lipolytic activity in rat adipocytes (glycerol concentration); type: cell-based; conditions: Adipocyte; for EC50: rat adipocytes, glycerol release, 37° C., 1 hour, read-out: ED50 (the source's name); for Emax: Rattus norvegicus, 1 h, read-out: Intrinsic activity(%)
Procedure: Lipolytic Activity in Rat Adipocytes Adipose tissues were collected from epididymis and minced. Krebs-Ringer buffer solution containing 1 mg/ml Collagenase (Sigma) and 1% of bovine serum albumin was added in an amount of 3 ml per one gram of the tissue. These cells were then incubated at 37° C. for 30 minutes with shaking and then undigested tissues were removed with a nylon filter. The resulting adipocytes were washed four times with Krebs-Ringer buffer, and then cells was diluted to 2×10^5 cells/ml with Krebs-Ringer buffer solution containing 4% of bovine serum albumin. These cells were transferred to Eppendorf tubes each in an amount of 300 μl. Each 300 μl of a culture medium containing the test compounds was added to these tubes and was held at 37° C. for 1 hour with shaking. Stimulation was stopped by cooling with ice. After centrifugation, the adipocytes were taken off with an aspirator, and then the concentration of glycerol was determined using F-KIT GLYCEROL (Behringer-Manheim).

human β3 = target: T1, human β3 (Homo sapiens, UniProt P13945); assay: Human β3-agonist activity (cAMP accumulation in CHO cells transfected with human β3 gene); type: cell-based
T1 construct: inserted the 1st exon of human β3 gene was transfected; expressed in transfected cells; host or cells: CHO cells (Chinese hamster ovary), pcDNA3 vector
T1 sequence (P13945 1-402 limits assumed): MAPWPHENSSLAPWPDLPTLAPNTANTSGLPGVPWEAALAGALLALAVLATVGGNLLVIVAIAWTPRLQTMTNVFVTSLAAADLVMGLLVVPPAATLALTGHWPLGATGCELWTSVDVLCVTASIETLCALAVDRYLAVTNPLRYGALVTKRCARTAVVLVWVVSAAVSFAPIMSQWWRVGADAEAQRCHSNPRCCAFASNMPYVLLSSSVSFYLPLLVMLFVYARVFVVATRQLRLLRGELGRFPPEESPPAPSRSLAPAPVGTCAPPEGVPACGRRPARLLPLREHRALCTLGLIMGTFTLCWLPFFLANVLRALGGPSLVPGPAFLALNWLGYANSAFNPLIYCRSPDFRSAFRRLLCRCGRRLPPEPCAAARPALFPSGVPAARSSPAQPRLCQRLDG
Procedure: Human β3-agonist Activity Human β3-agonist activity was examined using CHO cells (chinese hamster ovarian cells) to which pcDNA3 (in vitrogen) inserted the 1st exon of human β3 gene was transfected. Human β3 fragment was obtained by PCR using human fat tissue cDNA (supplied from Clontech) with a […] [Krief et al, J. Clin. Invest., Vol. 91, p344-349 (1993)]. And then full length of human […] was cloned using this fragment as a probe.
The cells were cultured in a HAM F-12 medium containing 10% of fetal bovine serum, 400 μg/ml of Geneticin (Gibco BRL), 100 U/ml penicillin and 100 μg/ml streptomycin. 5×10^5 cells were placed on a 6-well plate and cultured for 24 hours, after which the medium was changed to a HAM F-12 medium without serum and was kept for 2 hours. Each test compound was first dissolved in DMSO, and then diluted with a HAM F-12 medium containing 1 mM isobutylmethyl xanthine and 1 mM ascorbic acid. A 10-fold dilution in the range of 10^-5 to 10^-12 M was added into the cells.
After culturing for 30 minutes, culture medium was withdrawn, 0.5 ml of 1 N NaOH was added and was kept for 20 minutes. Ater then 0.5 ml of 1 N acetic acid was added with subsequent agitation and centrifugation. Finally, concentration of cAMP were analyzed using cAMP EIA KIT (Cayman). […] CL316,243 was synthesized by the method given in J. Med. Chem., Vol. 35, p3081-3084 (1992).

[1] = Blood glucose lowering effect in glucose-loaded mice; type: in vivo, male ddy mice; conditions: intraperitoneal, 10 mg/kg; 1 hour; glucose load 2 g/kg s.c.
Procedure: Blood Glucose Lowering Effect and Lipolytic Effect
Glucose was subcutaneously administered to male ddy mice (supplied from the dirm Nippon Charles Liver) of 6 weeks age at a dose of 2 g/kg. The animals were also treated with either one of test compounds via oral or intraperitoneal administration at a dose of 0.1 ml per 10 g of body weight. After one hour, blood sample was taken from abdominal aorta, serum was separated and served as the sample.
Blood Glucose Lowering Effect:
The samples prepared as above were analyzed for the serum glucose concentration by Auto analyzer (SUPER Z of the firm M. C. Medical). For the analyzer kit, Glucose 11 HA TEST WAKO (of the firm Wako Pure Chemical) was used.
% decrease in blood glucose=[(A-B)/(A-C)]×100
in whcih A represents the glucose concentration after loading glucose, B represents the glucose concentration after administration of the compound and C is the usual level of the glucose concentration.

[2] = Lipolytic effect in mice (serum free fatty acid); type: in vivo, male ddy mice; conditions: intraperitoneal, 10 mg/kg; 1 hour
Procedure: Blood Glucose Lowering Effect and Lipolytic Effect Glucose was subcutaneously administered to male ddy mice (supplied from the dirm Nippon Charles Liver) of 6 weeks age at a dose of 2 g/kg. […] After one hour, blood sample was taken from abdominal aorta, serum was separated and served as the sample. Lipolytic Effect: Amount of free fatty acid in the samples was determined using NEFA HA TEST WAKO (of the firm Wako Pure Chemical). […] Therefore, it was shown that they are useful for preventive and therapeutic treatment of hyperlipemia and obesity.

[3] = design: species or system male ddy mice; conditions: mouse, in vivo, po, 100 mg/kg
Procedure: The compounds of Example 2 was orally administered to 6 weeks age male ddy mice (supplied from the firm Nippon Chrles Liver) at a dose of 100 mg/kg.

[4] = CHO cells expressing human β3, cAMP, 30 minutes; read-out: ED50 (the source's name)
[5] = CHO, read-out: Intrinsic activity(%)

Row | SMILES | EC50 (rat adipocytes) | Emax (rat adipocytes) | EC50 (human β3; [4]) | Emax (human β3; [5]) | Emax (human β3; CHO; read-out: Intrinsic activity(%)) | reduction of blood glucose [1] | increase of free fatty acid concentration [2] | fatal cases [3]
1 | CS(=O)(=O)Nc1cc([C@@H](O)CNCCOc2ccc3c4c(oc3c2)CCCC4)ccc1O [Example 26, (R)-N-[5-[2-[2-(6,7,8,9-tetrahydrodibenzofuran-3-yloxy)ethylamino]-1-hydroxyethyl]-2-hydroxyphenyl]methanesulfonamide hydrochloride] | 39 nM | 118% | 31 nM | 111% | – | – | – | –
2 | CC(C)NCC(O)c1ccc(O)c(O)c1 (stereo not shown) [isoproterenol, reference compound] | 92 nM | 100% | – | – | – | – | – | –
3 | CS(=O)(=O)Nc1cccc(C(O)CNCCOc2ccc3c4c([nH]c3c2)CCCC4)c1 (racemic) [Example 17, (±)-N-[3-[2-[2-(5,6,7,8-tetrahydro-9H-carbazol-2-yloxy)ethylamino]-1-hydroxyethyl]phenyl]methanesulfonamide hydrochloride] | – | – | 92 nM | 78% | – | – | – | –
4 | CN(C)S(=O)(=O)Nc1cc([C@@H](O)CNCCOc2ccc3c4c(oc3c2)CCCC4)ccc1O [Example 22, (R)-N'-[5-[2-[2-(6,7,8,9-tetrahydrodibenzofuran-3-yloxy)ethylamino]-1-hydroxyethyl]-2-hydroxyphenyl]-N,N-dimethylsulfamide hydrochloride] | – | – | 27 nM | 84% | – | – | – | –
5 | C[C@H](Cc1ccc(OCC(=O)O)cc1)NC[C@H](O)c1cccc(Cl)c1 [BRL37344, reference compound] | – | – | – | – | 29% | – | – | –
6 | CS(=O)(=O)Nc1cc([C@@H](O)CNCCOc2ccc3c4c([nH]c3c2)CCCC4)ccc1OCc1ccccc1 [Example 5, (R)-N-[5-[2-[2-(5,6,7,8-tetrahydro-9H-carbazol-2-yloxy)ethylamino]-1-hydroxyethyl]-2-benzyloxyphenyl]methanesulfonamide hydrochloride] | – | – | 570 nM | 101% | – | – | – | –
7 | CS(=O)(=O)Nc1cc([C@@H](O)CNCCOc2ccc3c4c([nH]c3c2)CCCC4)ccc1O [Example 6, (R)-N-[5-[2-[2-(5,6,7,8-tetrahydro-9H-carbazol-2-yloxy)ethylamino]-1-hydroxyethyl]-2-hydroxyphenyl]methanesulfonamide hydrochloride] | 200 nM | 132% | 0.021 nM | 84% | – | – | – | –
8 | CN(C)S(=O)(=O)Nc1cc([C@@H](O)CNCCOc2ccc3c4c([nH]c3c2)CCCC4)ccc1O.Cl [Example 2, (R)-N'-[5-[2-[2-(5,6,7,8-tetrahydro-9H-carbazol-2-yloxy)ethylamino]-1-hydroxyethyl]-2-hydroxyphenyl]-N,N-dimethylsulfamide hydrochloride] | 2000 nM | 127% | 0.26 nM | 63% | – | showed a reduction of blood glucose | showed an increase of free fatty acid concentration | no fatal case was found
9 | CS(=O)(=O)Nc1cc([C@@H](O)CNCCOc2ccc3c4c([nH]c3c2)CCCC4)ccc1F [Example 9, (R)-N-[5-[2-[2-(5,6,7,8-tetrahydro-9H-carbazol-2-yloxy)ethylamino]-1-hydroxyethyl]-2-fluorophenyl]methanesulfonamide hydrochloride] | – | – | 29 nM | 47% | – | – | – | –
10 | CS(=O)(=O)Nc1cc(C(O)CNCCOc2ccc3c4c([nH]c3c2)CCCC4)ccc1Cl (racemic) [Example 14, (±)-N-[5-[2-[2-(5,6,7,8-tetrahydro-9H-carbazol-2-yloxy)ethylamino]-1-hydroxyethyl]-2-chlorophenyl]methanesulfonamide hydrochloride] | – | – | 25 nM | 62% | – | – | – | –
11 | CS(=O)(=O)Nc1cc([C@@H](O)CNCCOc2ccc3c4c([nH]c3c2)CCCC4)ccc1Br [Example 15, (R)-N-[5-[2-[2-(5,6,7,8-tetrahydro-9H-carbazol-2-yloxy)ethylamino]-1-hydroxyethyl]-2-bromophenyl]methanesulfonamide hydrochloride] | – | – | 40 nM | 72% | – | – | – | –
12 | CS(=O)(=O)Nc1cc([C@@H](O)CNCCOc2ccc3c4c(sc3c2)CCCC4)ccc1O [Example 28, (R)-N-[5-[2-[2-(6,7,8,9-tetrahydrodibenzothiophen-3-yloxy)ethylamino]-1-hydroxyethyl]-2-hydroxyphenyl]methanesulfonamide hydrochloride] | 400 nM | 140% | 0.11 nM | 96% | – | – | – | –
